Results published in ChEMBL document CHEMBL1201862, “PubChem BioAssay data set” (2004).
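These data come from cells grown in 96-well plates and exposed to compound for 48 hours at five concentrations. At the GI50, growth is halved.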 The source made the active and inactive calls. Rule as the data show it: active = GI50 up to about 1.1 µM and inactive = higher.

Tests used:
Assay in all cases: NCI tumour cell line growth inhibition, 48 h
[1] = tested on: ACHN
[2] = tested on: SK-MEL-2
[3] = tested on: HCC 2998
[4] = tested on: HT-29
[5] = tested on: HOP-62
[6] = tested on: PC-3
[7] = tested on: Hs-578T
[8] = tested on: RPMI-8226
[9] = tested on: IGROV-1
[10] = tested on: SF-268
[11] = tested on: 786-0
[12] = tested on: SNB-75
[13] = tested on: BT-549
[14] = tested on: SF-539
[15] = tested on: UACC-62
[16] = tested on: UO-31
[17] = tested on: SNB-19
[18] = tested on: CAKI-1
[19] = tested on: K562

## CN(c1c(Cl)cccc1Cl)S(=O)(=O)c1ccccc1[N+](=O)[O-]
[1]
  GI50: > 100 µM (inactive)
[2]
  GI50: > 100 µM (inactive)
[3]
  GI50: > 100 µM (inactive)
[4]
  GI50: > 100 µM (inactive)
[5]
  GI50: > 100 µM (inactive)
[6]
  GI50: > 100 µM (inactive)
[7]
  GI50: > 100 µM (inactive)
[8]
  GI50: > 100 µM (inactive)
[9]
  GI50: > 100 µM (inactive)
[10]
  GI50: > 100 µM (inactive)
[11]
  GI50: > 100 µM (inactive)
[12]
  GI50: > 100 µM (inactive)
[13]
  GI50: > 100 µM (inactive)
[14]
  GI50: > 100 µM (inactive)
[15]
  GI50: > 100 µM (inactive)
[16]
  GI50: > 100 µM (inactive)
[17]
  GI50: > 100 µM (inactive)
[18]
  GI50: > 100 µM (inactive)

## CC(=O)Nc1ccc(OC/C(N)=N/NC(=O)c2ccncc2)cc1
[1]
  GI50: > 100 µM (inactive)
[2]
  GI50: > 100 µM (inactive)
[3]
  GI50: > 100 µM (inactive)
[19]
  GI50: > 100 µM (inactive)
[4]
  GI50: > 100 µM (inactive)
[5]
  GI50: > 100 µM (inactive)
[6]
  GI50: > 100 µM (inactive)
[7]
  GI50: > 100 µM (inactive)
[8]
  GI50: > 100 µM (inactive)
[9]
  GI50: > 100 µM (inactive)
[10]
  GI50: > 100 µM (inactive)
[11]
  GI50: > 100 µM (inactive)
[12]
  GI50: 29.1 µM (inactive)
[13]
  GI50: > 100 µM (inactive)
[14]
  GI50: > 100 µM (inactive)
[15]
  GI50: > 100 µM (inactive)
[17]
  GI50: > 100 µM (inactive)
[18]
  GI50: > 100 µM (inactive)

## O=C1N[C@@H]2c3c(Br)sc(Br)c3C(=O)[C@@H]2O1
[1]
  GI50: 1.85 µM (inactive)
[2]
  GI50: 16.8 µM (inactive)
[3]
  GI50: 3.69 µM (inactive)
[19]
  GI50: 0.887 µM (active)
[4]
  GI50: 1.9 µM (inactive)
[5]
  GI50: 22 µM (inactive)
[6]
  GI50: 6.41 µM (inactive)
[7]
  GI50: 19.7 µM (inactive)
[8]
  GI50: 5.12 µM (inactive)
[9]
  GI50: 4.84 µM (inactive)
[10]
  GI50: 7.66 µM (inactive)
[11]
  GI50: 7.11 µM (inactive)
[12]
  GI50: 6.14 µM (inactive)
[13]
  GI50: 8.57 µM (inactive)
[14]
  GI50: 10.3 µM (inactive)
[15]
  GI50: 13.2 µM (inactive)
[16]
  GI50: 10.1 µM (inactive)
[17]
  GI50: 15.8 µM (inactive)
[18]
  GI50: 0.877 µM (active)

## CN(C)CC1CN/C(=N\C(=O)Nc2ccccc2)O1 (configuration not stated)
[1]
  GI50: > 100 µM (inactive)
[2]
  GI50: > 100 µM (inactive)
[3]
  GI50: > 100 µM (inactive)
[19]
  GI50: > 100 µM (inactive)
[4]
  GI50: > 100 µM (inactive)
[5]
  GI50: > 100 µM (inactive)
[6]
  GI50: > 100 µM (inactive)
[7]
  GI50: > 100 µM (inactive)
[8]
  GI50: > 100 µM (inactive)
[9]
  GI50: > 100 µM (inactive)
[10]
  GI50: > 100 µM (inactive)
[11]
  GI50: > 100 µM (inactive)
[12]
  GI50: > 100 µM (inactive)
[13]
  GI50: > 100 µM (inactive)
[14]
  GI50: > 100 µM (inactive)
[15]
  GI50: > 100 µM (inactive)
[16]
  GI50: > 100 µM (inactive)
[17]
  GI50: > 100 µM (inactive)
[18]
  GI50: > 100 µM (inactive)

## N=C(/C=C/c1ccc(-c2cn3cc(/C=C/C(=N)N4CCOCC4)ccc3n2)cc1)N1CCOCC1
[1]
  GI50: > 100 µM (inactive)
[2]
  GI50: > 100 µM (inactive)
[3]
  GI50: > 100 µM (inactive)
[19]
  GI50: > 100 µM (inactive)
[5]
  GI50: > 100 µM (inactive)
[6]
  GI50: > 100 µM (inactive)
[7]
  GI50: > 100 µM (inactive)
[8]
  GI50: 76.4 µM (inactive)
[9]
  GI50: > 100 µM (inactive)
[10]
  GI50: > 100 µM (inactive)
[11]
  GI50: > 100 µM (inactive)
[12]
  GI50: > 100 µM (inactive)
[13]
  GI50: > 100 µM (inactive)
[14]
  GI50: > 100 µM (inactive)
[15]
  GI50: > 100 µM (inactive)
[16]
  GI50: > 100 µM (inactive)
[17]
  GI50: > 100 µM (inactive)
[18]
  GI50: > 100 µM (inactive)

## C/C=C(\C)C(=O)OC1/C=C(\C)CC/C=C(\C)CC2OC(=O)C(C)(OC(C)=O)C12 (configuration not stated)
[1]
  GI50: > 100 µM (inactive)
[2]
  GI50: > 100 µM (inactive)
[3]
  GI50: > 100 µM (inactive)
[19]
  GI50: > 100 µM (inactive)
[4]
  GI50: > 100 µM (inactive)
[5]
  GI50: > 100 µM (inactive)
[6]
  GI50: > 100 µM (inactive)
[7]
  GI50: > 100 µM (inactive)
[8]
  GI50: > 100 µM (inactive)
[9]
  GI50: > 100 µM (inactive)
[10]
  GI50: > 100 µM (inactive)
[11]
  GI50: > 100 µM (inactive)
[12]
  GI50: > 100 µM (inactive)
[13]
  GI50: > 100 µM (inactive)
[14]
  GI50: > 100 µM (inactive)
[15]
  GI50: > 100 µM (inactive)
[17]
  GI50: > 100 µM (inactive)
[18]
  GI50: > 100 µM (inactive)

## O=C(Cn1c2ccc(Br)cc2c2nc3ccccc3nc21)N1CCOCC1
[1]
  GI50: > 100 µM (inactive)
[2]
  GI50: > 100 µM (inactive)
[3]
  GI50: > 100 µM (inactive)
[19]
  GI50: > 100 µM (inactive)
[4]
  GI50: > 100 µM (inactive)
[5]
  GI50: > 100 µM (inactive)
[6]
  GI50: 95.7 µM (inactive)
[7]
  GI50: 49.1 µM (inactive)
[8]
  GI50: > 100 µM (inactive)
[9]
  GI50: 49.7 µM (inactive)
[10]
  GI50: > 100 µM (inactive)
[11]
  GI50: > 100 µM (inactive)
[12]
  GI50: 22.1 µM (inactive)
[13]
  GI50: > 100 µM (inactive)
[15]
  GI50: > 100 µM (inactive)
[16]
  GI50: > 100 µM (inactive)
[17]
  GI50: > 100 µM (inactive)
[18]
  GI50: > 100 µM (inactive)

## C=CCOc1ccc(C2C(C(=O)OCC)C(=O)CC(C)(O)C2C(=O)OCC)cc1OC (configuration not stated)
[1]
  GI50: > 100 µM (inactive)
[2]
  GI50: > 100 µM (inactive)
[3]
  GI50: > 100 µM (inactive)
[19]
  GI50: > 100 µM (inactive)
[4]
  GI50: > 100 µM (inactive)
[5]
  GI50: > 100 µM (inactive)
[6]
  GI50: > 100 µM (inactive)
[7]
  GI50: > 100 µM (inactive)
[8]
  GI50: > 100 µM (inactive)
[9]
  GI50: > 100 µM (inactive)
[10]
  GI50: > 100 µM (inactive)
[11]
  GI50: > 100 µM (inactive)
[12]
  GI50: > 100 µM (inactive)
[13]
  GI50: > 100 µM (inactive)
[14]
  GI50: > 100 µM (inactive)
[15]
  GI50: > 100 µM (inactive)
[16]
  GI50: > 100 µM (inactive)
[17]
  GI50: > 100 µM (inactive)
[18]
  GI50: > 100 µM (inactive)
